Assay results: patent US20250054624A1, “METHODS AND SYSTEMS FOR DIGITAL PATHOLOGY ASSESSMENT OF CANCER VIA DEEP LEARNING” (Artera Inc., priority 2023, published 2025)
Entries after “also recorded” stand apart in the source; their conditions may differ. Read-outs that look alike come from different tables or passages of the source.

Tests used:
[1] = test system: nonmetastatic castration-resistant prostate cancer (nmCRPC); assay: SPARTAN phase III randomized placebo-controlled trial; outcomes by treatment group and MMAI risk group; assay type: in vivo, human; details: for PFS2 hazard ratio (HR) for apalutamide compared to placebo: second progression-free survival; for MFS HR, variable Treatment, Cox regression multivariable analysis / OS HR, variable Treatment, Cox regression multivariable analysis / PFS2 HR, variable Treatment, Cox regression multivariable analysis: all patients
Description: The addition of apalutamide (APA) to androgen deprivation therapy (ADT) improved metastasis-free survival (MFS) and second progression-free survival (PFS2) among patients with nonmetastatic castration-resistant prostate cancer (nmCRPC). A digital histopathology-based multimodal AI (MMAI) algorithm as described herein was trained to evaluate whether MMAI could define risk of progression among nmCRPC patients treated with APA or placebo in the SPARTAN trial.
Patients enrolled in the SPARTAN trial with available H&E-stained biopsy slides from their primary diagnosis were included. H&E slides were digitized. Baseline clinical parameters to generate MMAI scores were Gleason score, age, T stage, and PSA. MMAI scores for distant metastasis (DM) were generated, ranging from 0 to 1. Patients were further categorized into MMAI non-high-risk and high-risk groups using a score cutoff. Kaplan Meier estimates were calculated for PFS2 and MFS; comparisons were performed using log-rank test and Cox proportional-hazards regression for treatment arms and MMAI risk groups. […] was used to evaluate the interaction between treatment arms and risk groups.
SPARTAN (NCT01946204) was an international, multicenter, randomized, double-blinded, placebo-controlled, phase III clinical trial that evaluated the efficacy of apalutamide in improving MFS in men with nmCRPC. […] These patients were considered at high risk for the development of metastases, as indicated by a PSA doubling time of 10 months or less during continuous ADT.
Participants were randomly assigned 2:1 to receive ongoing ADT with either apalutamide (240 mg daily) or a matched placebo. A primary endpoint of the study was MFS, defined as the duration from randomization to the first detection of distant metastasis on conventional imaging (as determined on central review by independent radiologists blinded to patient identifiers and treatment) or death from any cause, whichever occurred first. Secondary endpoints included second progression-free survival (PFS2), defined as the time from randomization to progression on first subsequent therapy, and overall survival (OS), defined as the time from randomization to death.
MMAI scores were computed for each subject within the analysis cohort using whole slide images digitized at 20× resolution from H&E-stained prostate primary slides obtained at the time of diagnosis. These scores, ranging from 0 to 1, represent a continuum of increasing probabilities for clinical events such as DM and PCSM. Subjects' MMAI scores for risk of DM categorized patients into MMAI risk groups (low, intermediate and high) using predefined clinical thresholds established for patients with localized prostate cancer based upon clinician input. For the purpose of this analysis, patients were categorized as either MMAI high risk or MMAI non-high risk (MMAI score with >10% estimated 10-year DM rates defined high-risk), with the latter group combining the low and intermediate risk categories for comparison.
Summary statistics of baseline characteristics for the analysis cohort, treatment subgroups and the overall clinical trial cohort were reported to evaluate comparability. Kaplan-Meier estimates were calculated for MFS, PFS2, and OS for analysis by treatment group and MMAI risk groups. Comparisons were performed using log-rank test and Cox proportional hazards regression models for treatment arms, MMAI risk scores, and MMAI risk group. The reporting unit for continuous MMAI scores in the Cox models is standard deviation (SD), meaning that each 1-unit increase corresponds to 1 SD increase in MMAI score. The interaction between treatment arm and MMAI risk scores was evaluated using a Cox proportional hazards model. Treatment effects within each MMAI risk subgroup were also assessed to measure the relative treatment effect between arms. […]

[2] = test system: nonmetastatic castration-resistant prostate cancer (nmCRPC); details: cited from earlier work
[3] = all patients of analysis cohort
[4] = model with MMAI risk group (high/non-high) and MMAI risk group:Treatment interaction
[5] = model with continuous MMAI risk score and MMAI risk score:Treatment interaction
[6] = overall SPARTAN study, in words

SMILES: CNC(=O)c1ccc(N2C(=S)N(c3cnc(C#N)c(C(F)(F)F)c3)C(=O)C23CCC3)cc1F [apalutamide]
- Median overall survival (95% CI), month ([1]; MMAI Biomarker Cohort, N = 311): 65.1 month
- MFS hazard ratio (HR) for apalutamide compared to placebo ([1]; MMAI high risk group, metastasis-free survival, with ongoing ADT): 0.19
- OS hazard ratio (HR) for apalutamide compared to placebo ([1]; MMAI high risk group, overall survival): 0.6
- PFS2 hazard ratio (HR) for apalutamide compared to placebo ([1]; MMAI high risk group): 0.47
- PFS2 hazard ratio (HR) for apalutamide compared to placebo ([1]; MMAI high risk group, listed as APA): 0.76
- MFS HR, variable Treatment, Cox regression univariate analysis [1, 3]: 0.28
- PFS2 HR, variable Treatment, Cox regression univariate analysis [1, 3]: 0.55
- OS HR, variable Treatment, Cox regression univariate analysis ([1]; all patients of analysis cohort, listed as Treatment): 0.7
- MFS HR, variable Treatment, Cox regression multivariable analysis [1, 4]: 0.61
- OS HR, variable Treatment, Cox regression multivariable analysis [1, 4]: 0.97
- PFS2 HR, variable Treatment, Cox regression multivariable analysis [1, 4]: 0.74
- MFS HR, variable Treatment, Cox regression multivariable analysis [1, 5]: 1.72
- OS HR, variable Treatment, Cox regression multivariable analysis [1, 5]: 1.98
- PFS2 HR, variable Treatment, Cox regression multivariable analysis [1, 5]: 2.28
- Median metastasis-free survival (95% CI), month ([2]; Overall SPARTAN Trial, N = 806): 40.5 month
- Median overall survival (95% CI), month ([2]; Overall SPARTAN Trial, N = 806): 73.9 month
- metastasis-free survival (MFS), effect of adding apalutamide to ADT [2, 6]: significantly improved
- second progression-free survival (PFS2), effect of adding apalutamide to ADT [2, 6]: significantly improved
- time to symptomatic progression, effect of adding apalutamide to ADT [2, 6]: significantly improved
- overall survival (OS), effect of adding apalutamide to ADT compared to placebo ([2]; overall SPARTAN study, in words, median follow up of 52 months): significantly improved; also recorded: significant extension
